Source: ChEMBL document CHEMBL1201862, “PubChem BioAssay data set” (2004)
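Briefly, cells in 96-well plates were exposed to five compound concentrations for 48 h, and endpoints were estimated by linear interpolation. At the GI50, growth is halved.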 Calls of active or inactive are those of the source. Cut-off read from the data, not from the text of the source: active = GI50 up to about 1.1 µM and inactive = higher.

Columns and labels:
Experiment in all cases: NCI tumour cell line growth inhibition, 48 h
MOLT-4 = tested on: MOLT-4
UACC-62 = tested on: UACC-62
COLO 205 = tested on: COLO 205
BT-549 = tested on: BT-549
A549 = tested on: A549
ACHN = tested on: ACHN
A498 = tested on: A498
OVCAR-3 = tested on: OVCAR-3
RXF 393 = tested on: RXF 393
SW-620 = tested on: SW-620
HCT-15 = tested on: HCT-15
Malme-3M = tested on: Malme-3M
HOP-62 = tested on: HOP-62
UACC-257 = tested on: UACC-257
UO-31 = tested on: UO-31
SF-539 = tested on: SF-539
TK-10 = tested on: TK-10
SK-MEL-5 = tested on: SK-MEL-5
CCRF-CEM = tested on: CCRF-CEM
NCI-H23 = tested on: NCI-H23
IGROV-1 = tested on: IGROV-1
HCC 2998 = tested on: HCC 2998
DU-145 = tested on: DU-145
OVCAR-8 = tested on: OVCAR-8
MCF7 = tested on: MCF7
SF-295 = tested on: SF-295
SNB-19 = tested on: SNB-19
SK-OV-3 = tested on: SK-OV-3
NCI-H460 = tested on: NCI-H460
HCT-116 = tested on: HCT-116
SNB-75 = tested on: SNB-75
786-0 = tested on: 786-0
KM12 = tested on: KM12
MDA-N = tested on: MDA-N
CAKI-1 = tested on: CAKI-1
HOP-92 = tested on: HOP-92
OVCAR-5 = tested on: OVCAR-5
NCI-H522 = tested on: NCI-H522
SF-268 = tested on: SF-268
OVCAR-4 = tested on: OVCAR-4
MDA-MB-435 = tested on: MDA-MB-435
RPMI-8226 = tested on: RPMI-8226
M14 = tested on: M14
SK-MEL-28 = tested on: SK-MEL-28
EKVX = tested on: EKVX
HL-60 = tested on: HL-60
PC-3 = tested on: PC-3
SR = tested on: SR
U-251 = tested on: U-251
Hs-578T = tested on: Hs-578T
SN12C = tested on: SN12C
HT-29 = tested on: HT-29
SK-MEL-2 = tested on: SK-MEL-2
T47D = tested on: T47D
NCI-H226 = tested on: NCI-H226
K562 = tested on: K562
LOX IMVI = tested on: LOX IMVI
NCI/ADR-RES = tested on: NCI/ADR-RES
MDA-MB-231 = tested on: MDA-MB-231

O=C1CN(c2cccc(Cl)c2)C(=O)CN1NCNN1CC(=O)N(c2cccc(Cl)c2)CC1=O was tested, and the GI50 (MOLT-4) was > 100000 nM (inactive), the GI50 (UACC-62) was > 100000 nM (inactive) and the GI50 (COLO 205) was > 100000 nM (inactive). For the same compound, the GI50 (BT-549) was > 100000 nM (inactive), the GI50 (A549) was > 100000 nM (inactive) and the GI50 (ACHN) was > 100000 nM (inactive). The GI50 (A498) was > 100000 nM (inactive), the GI50 (OVCAR-3) was > 100000 nM (inactive) and the GI50 (RXF 393) was > 100000 nM (inactive). The GI50 (SW-620) was > 100000 nM (inactive), the GI50 (HCT-15) was greater than 100000 nM and the GI50 (Malme-3M) was > 100000 nM (inactive). The GI50 (HOP-62) was > 100000 nM (inactive), the GI50 (UACC-257) was > 100000 nM (inactive) and the GI50 (UO-31) was > 100000 nM (inactive). For the same compound, the GI50 (SF-539) was > 100000 nM (inactive), the GI50 (TK-10) was > 100000 nM (inactive) and the GI50 (SK-MEL-5) was > 100000 nM (inactive). For the same compound, the GI50 (CCRF-CEM) was > 100000 nM (inactive), the GI50 (NCI-H23) was > 100000 nM (inactive) and the GI50 (IGROV-1) was > 100000 nM (inactive). For the same compound, the GI50 (HCC 2998) was > 100000 nM (inactive), the GI50 (DU-145) was > 100000 nM (inactive) and the GI50 (OVCAR-8) was > 100000 nM (inactive). The GI50 (MCF7) was > 100000 nM (inactive), the GI50 (SF-295) was > 100000 nM (inactive) and the GI50 (SNB-19) was > 100000 nM (inactive). The GI50 (SK-OV-3) was > 100000 nM (inactive), the GI50 (NCI-H460) was > 100000 nM (inactive) and the GI50 (HCT-116) was > 100000 nM (inactive). For the same compound, the GI50 (SNB-75) was 38300 nM (inactive), the GI50 (786-0) was > 100000 nM (inactive) and the GI50 (KM12) was > 100000 nM (inactive). For the same compound, the GI50 (MDA-N) was > 100000 nM (inactive), the GI50 (CAKI-1) was > 100000 nM (inactive) and the GI50 (HOP-92) was > 100000 nM (inactive). The GI50 (OVCAR-5) was > 100000 nM (inactive), the GI50 (NCI-H522) was > 100000 nM (inactive) and the GI50 (SF-268) was > 100000 nM (inactive). For the same compound, the GI50 (OVCAR-4) was > 100000 nM (inactive), the GI50 (MDA-MB-435) was > 100000 nM (inactive) and the GI50 (RPMI-8226) was > 100000 nM (inactive). For the same compound, the GI50 (M14) was > 100000 nM (inactive), the GI50 (SK-MEL-28) was > 100000 nM (inactive) and the GI50 (EKVX) was > 100000 nM (inactive). The GI50 (HL-60) was > 100000 nM (inactive), the GI50 (PC-3) was > 100000 nM (inactive) and the GI50 (SR) was > 100000 nM (inactive). The GI50 (U-251) was > 100000 nM (inactive), the GI50 (Hs-578T) was > 100000 nM (inactive) and the GI50 (SN12C) was > 100000 nM (inactive). The GI50 (HT-29) was > 100000 nM (inactive).
For O=C1Cc2c([nH]c3ccc([N+](=O)[O-])cc23)-c2ccccc2N1 [ALSTERPAULLONE], the GI50 (MOLT-4) was 312 nM (active), the GI50 (UACC-62) was 940 nM (active) and the GI50 (COLO 205) was 235 nM (active). The GI50 (BT-549) was 1080 nM (active), the GI50 (A549) was 211 nM (active) and the GI50 (SK-MEL-2) was 713 nM (active). The GI50 (ACHN) was 288 nM (active), the GI50 (T47D) was 2880 nM (inactive) and the GI50 (A498) was 822 nM (active). For the same compound, the GI50 (OVCAR-3) was 158 nM (active), the GI50 (RXF 393) was 284 nM (active) and the GI50 (SW-620) was 348 nM (active). For the same compound, the GI50 (HCT-15) was 237 nM, the GI50 (Malme-3M) was 9080 nM (inactive) and the GI50 (HOP-62) was 279 nM (active). For the same compound, the GI50 (UACC-257) was 1110 nM (active), the GI50 (UO-31) was 109 nM (active) and the GI50 (SF-539) was 397 nM (active). The GI50 (TK-10) was 757 nM (active), the GI50 (SK-MEL-5) was 174 nM (active) and the GI50 (CCRF-CEM) was 118 nM (active). For the same compound, the GI50 (NCI-H23) was 557 nM (active), the GI50 (IGROV-1) was 530 nM (active) and the GI50 (HCC 2998) was 914 nM (active). The GI50 (DU-145) was 209 nM (active), the GI50 (OVCAR-8) was 446 nM (active) and the GI50 (MCF7) was 508 nM (active). The GI50 (SF-295) was 920 nM (active), the GI50 (SNB-19) was 478 nM (active) and the GI50 (SK-OV-3) was 2300 nM (inactive). For the same compound, the GI50 (NCI-H460) was 396 nM (active), the GI50 (NCI-H226) was 275 nM (active) and the GI50 (HCT-116) was 116 nM (active). The GI50 (SNB-75) was 804 nM (active), the GI50 (786-0) was 406 nM (active) and the GI50 (K562) was 774 nM (active). For the same compound, the GI50 (KM12) was 165 nM (active), the GI50 (MDA-N) was 367 nM (active) and the GI50 (CAKI-1) was 332 nM (active). The GI50 (HOP-92) was 7930 nM (inactive), the GI50 (OVCAR-5) was 220 nM (active) and the GI50 (NCI-H522) was 1220 nM (inactive). For the same compound, the GI50 (LOX IMVI) was 181 nM (active), the GI50 (SF-268) was 471 nM (active) and the GI50 (OVCAR-4) was 498 nM (active). For the same compound, the GI50 (MDA-MB-435) was 499 nM (active), the GI50 (RPMI-8226) was 438 nM (active) and the GI50 (NCI/ADR-RES) was 610 nM (active). For the same compound, the GI50 (M14) was 453 nM (active), the GI50 (SK-MEL-28) was 345 nM (active) and the GI50 (EKVX) was 652 nM (active). For the same compound, the GI50 (HL-60) was 261 nM (active), the GI50 (MDA-MB-231) was 1160 nM (inactive) and the GI50 (PC-3) was 836 nM (active). For the same compound, the GI50 (U-251) was 471 nM (active), the GI50 (SN12C) was 391 nM (active) and the GI50 (HT-29) was 389 nM (active).
